In one series the target is T1, IL-23R (Homo sapiens, UniProt Q5VWK5).
T1 construct: host or cells: HEK293
T1 sequence (Q5VWK5 24-629): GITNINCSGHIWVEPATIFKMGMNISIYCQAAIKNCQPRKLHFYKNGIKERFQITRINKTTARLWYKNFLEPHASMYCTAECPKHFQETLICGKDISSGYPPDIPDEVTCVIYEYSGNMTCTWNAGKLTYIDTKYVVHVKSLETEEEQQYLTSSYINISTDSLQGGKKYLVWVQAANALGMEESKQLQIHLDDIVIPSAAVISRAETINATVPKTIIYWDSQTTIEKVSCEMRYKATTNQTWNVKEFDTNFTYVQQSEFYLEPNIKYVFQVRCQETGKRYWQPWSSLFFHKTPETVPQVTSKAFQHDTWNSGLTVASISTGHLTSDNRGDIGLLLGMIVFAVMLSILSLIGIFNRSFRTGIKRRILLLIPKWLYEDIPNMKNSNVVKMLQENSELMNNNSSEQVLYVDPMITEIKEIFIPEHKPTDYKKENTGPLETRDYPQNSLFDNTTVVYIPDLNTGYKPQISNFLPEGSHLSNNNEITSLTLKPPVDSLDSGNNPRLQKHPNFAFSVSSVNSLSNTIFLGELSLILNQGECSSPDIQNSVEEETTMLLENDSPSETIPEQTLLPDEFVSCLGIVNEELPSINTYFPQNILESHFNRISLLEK
As to the kind of experiment: IL23R Reporter Assay. Format: cell-based. Particulars: HEK293 cells containing IL-23R, IL-12RP1 and STAT-inducible firefly luciferase reporter; 10 ng/mL IL-23 (EC90); 5 h at 37° C.; read-out: IL23R Reporter Assay.

Series [1] in a line: Exposed Polar Surface Area (EPSA). Format: physicochemical. Particulars: SFC on Chirex 3014 column; sample 1 mM DMSO stock; read-out: EPSA. The gist of the method:
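Chirex 3014 column, 35 °C, 4 mL/min; CO2/MeOH + 20 mM NH4 formate, 5→60% modifier at 20%/min. UV/MS detection. EPSA (Å^2) from retention time vs 8-standard calibration line; duplicates; 1 mM DMSO stock injected undiluted.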

Positions of bridges follow the written chain, without caps; N, C: chain ends. Non-standard residues stand in square brackets, D forms with d. Residues, ends and D or L forms follow the SMILES beside them. ξ: configuration not given here. *: point of attachment. Me3N+(CH2)2O(CH2)2O(CH2)2CO = C[N+](C)(C)CCOCCOCCC(=O)*; CH2CH2OCH2CH2OCH2CH2NMe3+ = C[N+](C)(C)CCOCCOCC*; Trp(7-Me) = Cc1cccc2c(C[C@H](N)C(=O)O)c[nH]c12; Dab(NMeAc) = CC(=O)N(C)CC[C@H](N)C(=O)O; X47 = C[N+]1(C)CC[N+]2(CCN(CC*)CC2)CC1; X60 = CCCCCCCC[N+](C)(C)CCc1cn(CC*)nn1; 2Nal = N[C@@H](Cc1ccc2ccccc2c1)C(=O)O; 3Pal = N[C@@H](Cc1cccnc1)C(=O)O; Cit = NC(=O)NCCC[C@H](N)C(=O)O; Lys(Me) = CNCCCC[C@H](N)C(=O)O; Pen = CC(C)(S)[C@H](N)C(=O)O; ξLys(Me) = CNCCCCC(N)C(=O)O; Thp = NC1(C(=O)O)CCOCC1; X3 = C[N+](C)(C)CCCCC*; Sar = CNCC(=O)O Where only a bound is given, the exact number is not on record here.

For `CC(=O)N(C)CCCC[C@H](NC(=O)[C@H](Cc1ccccc1)NC(=O)[C@H](Cc1ccc2ccccc2c1)NC(=O)[C@H](Cc1ccc(OCCOCCOCC[N+](C)(C)C)cc1)NC(=O)[C@H]1NC(=O)[C@H](Cc2ccccc2)NC(=O)[C@H](Cc2c[nH]c3c(C)cccc23)NC(=O)[C@H]([C@@H](C)O)NC(=O)[C@H](Cc2ccccc2)NC(=O)[C@@H](NC(=O)CCOCCOCC[N+](C)(C)C)C(C)(C)SSC1(C)C)C(=O)N[C@@H](CC(N)=O)C(=O)N[C@@H](Cc1cccnc1)C(=O)N(C)CC(=O)N(C)C` [compound 464, cPEG3aCO-Pen(3)-F-T-7MeW-F-Pen(3)-APEG3f-2Nal-F-K(NMeAc)-N-3Pya-Sar-CON(Me)2] ({Me3N+(CH2)2O(CH2)2O(CH2)2CO}-[Pen]FT[Trp(7-Me)]F[Pen]Y(CH2CH2OCH2CH2OCH2CH2NMe3+)[2Nal]F[Lys(Me)](Ac)N[3Pal][Sar]-NMe2; disulfide 1-6), the IC50 at IL-23R was 30 nM. For the same molecule, the EPSA in series [1] worked out at 160 A^2.
The corresponding values for `CC(=O)N(C)CCCC[C@@H]1NC(=O)[C@H](C)NC(=O)[C@H]([C@@H](C)O)NC(=O)[C@H](CC(=O)N(C)C)NC(=O)[C@@H](NC(=O)CCOCCOCC[N+](C)(C)C)C(C)(C)SSC(C)(C)[C@@H](C(=O)N[C@@H](Cc2ccc(OCCOCCOCC[N+](C)(C)C)cc2)C(=O)N[C@@H](C)C(=O)NC2(C(=O)N[C@@H](CCCCN(C)C(C)=O)C(=O)N[C@@H](CC(N)=O)C(=O)N[C@@H](Cc3cccnc3)C(=O)N(C)CC(=O)N(C)C)CCOCC2)NC1=O` [compound 557, cPEG3aCO-Pen(3)-N(N(Me)2)-T-A-K(NMeAc)-Pen(3)-APEG3F-A-THP-K(NMeAc)-N-3Pya-Sar-CON(Me)2] ({Me3N+(CH2)2O(CH2)2O(CH2)2CO}-[Pen]D(NMe2)TA[Lys(Me)](Ac)[Pen]Y(CH2CH2OCH2CH2OCH2CH2NMe3+)A[Thp][Lys(Me)](Ac)N[3Pal][Sar]-NMe2; disulfide 1-6) are over 16600 nM and 139 A^2.
The matching figures for `CCCCCCCC[N+](C)(C)CCc1cn(CCOc2ccc(C[C@H](NC(=O)[C@H]3NC(=O)[C@H](CCCCNC(C)=O)NC(=O)[C@H](Cc4c[nH]c5c(C)cccc45)NC(=O)[C@H]([C@@H](C)O)NC(=O)[C@H](CC(N)=O)NC(=O)[C@@H](NC(C)=O)C(C)(C)SSC3(C)C)C(=O)N[C@@H](Cc3ccc4ccccc4c3)C(=O)NC3(C(=O)N[C@@H](CCCCNC(C)=O)C(=O)N[C@@H](CC(N)=O)C(=O)N[C@@H](Cc4cccnc4)C(=O)N(C)CC(N)=O)CCOCC3)cc2)nn1` [compound 250] (Ac-[Pen]NT[Trp(7-Me)]K(Ac)[Pen]Y(X60)[2Nal][Thp]K(Ac)N[3Pal][Sar]-NH2; disulfide 1-6 (inferred)): 6.9 nM and 146 A^2.
Turning to `CC(=O)N(C)CCCCC(NC(=O)C1(NC(=O)[C@H](Cc2ccc3ccccc3c2)NC(=O)[C@H](Cc2ccc(OCCOCCOCC[N+](C)(C)C)cc2)NC(=O)[C@H]2NC(=O)[C@H](CCCCN(C)C(C)=O)NC(=O)[C@H](Cc3c[nH]c4c(C)cccc34)NC(=O)[C@H]([C@@H](C)O)NC(=O)[C@H](CC(=O)N(C)C)NC(=O)[C@@H](NC(=O)CCOCCOCC[N+](C)(C)C)C(C)(C)SSC2(C)C)CCOCC1)C(=O)N[C@@H](CC(N)=O)C(=O)N[C@@H](Cc1ccccc1)C(=O)N(C)CC(=O)N(C)C` (stereo partly drawn) [compound 573, cPEG3aCO-Pen(3)-N(N(Me)2)-T-7MeW-K(NMeAc)-Pen(3)-APEG3F-2Nal-THP-K(NMeAc)-N-F-Sar-CON(Me)2] ({Me3N+(CH2)2O(CH2)2O(CH2)2CO}-[Pen]D(NMe2)T[Trp(7-Me)][Lys(Me)](Ac)[Pen]Y(CH2CH2OCH2CH2OCH2CH2NMe3+)[2Nal][Thp][ξLys(Me)](Ac)NF[Sar]-NMe2; disulfide 1-6), the IC50 at IL-23R was 650 nM. Also, in series [1], the EPSA turned out to be 153 A^2.
With `CC(=O)N(C)CCCC[C@@H]1NC(=O)[C@H](Cc2c[nH]c3c(C)cccc23)NC(=O)[C@H]([C@@H](C)O)NC(=O)[C@H](CC(=O)N(C)C)NC(=O)[C@@H](NC(=O)CCOCCOCC[N+](C)(C)C)C(C)(C)SSC(C)(C)[C@@H](C(=O)N[C@@H](Cc2ccc(OCCN3CC[N+]4(CC3)CC[N+](C)(C)CC4)cc2)C(=O)N[C@@H](Cc2ccc3ccccc3c2)C(=O)NC2(C(=O)N[C@@H](CCCCN(C)C(C)=O)C(=O)N[C@@H](CC(N)=O)C(=O)N[C@@H](Cc3cccnc3)C(=O)N(C)CC(=O)N(C)C)CCOCC2)NC1=O` [compound 269, cPEG3aCO-Pen(3)-N(N(Me)2)-T-7MeW-K(NMeAc)-Pen(3)-DMTASF-2Nal-THP-K(NMeAc)-N-3Pya-Sar-CON(Me)2] ({Me3N+(CH2)2O(CH2)2O(CH2)2CO}-[Pen]D(NMe2)T[Trp(7-Me)][Lys(Me)](Ac)[Pen]Y(X47)[2Nal][Thp][Lys(Me)](Ac)N[3Pal][Sar]-NMe2; disulfide 1-6), the IC50 at IL-23R is 1.4 nM. In addition, in series [1], the EPSA was 167 A^2.
On to `CC(=O)NCCCC[C@@H]1NC(=O)[C@H](Cc2c[nH]c3c(C)cccc23)NC(=O)[C@H]([C@@H](C)O)NC(=O)[C@H](CC(=O)N(C)C)NC(=O)[C@@H](NC(=O)CCOCCOCC[N+](C)(C)C)C(C)(C)SSC(C)(C)[C@@H](C(=O)N[C@@H](Cc2ccc(OCCCCC[N+](C)(C)C)cc2)C(=O)N[C@@H](Cc2ccc3ccccc3c2)C(=O)NC2(C(=O)N[C@@H](CCN(C)C(C)=O)C(=O)N[C@@H](CC(N)=O)C(=O)N[C@@H](Cc3cccnc3)C(=O)N(C)CC(=O)N(C)C)CCOCC2)NC1=O` [compound 308, cPEG3aCO-Pen(3)-N(N(Me)2)-T-7MeW-K(Ac)-Pen(3)-TMAPF-2Nal-THP-Dab(NMeAc)-N-3Pya-Sar-CON(Me)2] ({Me3N+(CH2)2O(CH2)2O(CH2)2CO}-[Pen]D(NMe2)T[Trp(7-Me)]K(Ac)[Pen]Y(X3)[2Nal][Thp][Dab(NMeAc)]N[3Pal][Sar]-NMe2; disulfide 1-6), for which the IC50 at IL-23R was 2 nM. Besides, in series [1], the EPSA worked out at 154 A^2.
As for `CC(=O)N(C)CCCC[C@H](NC(=O)C1(NC(=O)[C@H](Cc2ccc3ccccc3c2)NC(=O)[C@H](Cc2ccc(OCCCCC[N+](C)(C)C)cc2)NC(=O)[C@H]2NC(=O)[C@H](CCCNC(N)=O)NC(=O)[C@H](Cc3c[nH]c4c(C)cccc34)NC(=O)[C@H]([C@@H](C)O)NC(=O)[C@H](CC(=O)N(C)C)NC(=O)[C@@H](NC(=O)CCOCCOCC[N+](C)(C)C)C(C)(C)SSC2(C)C)CCOCC1)C(=O)N[C@@H](CC(N)=O)C(=O)N[C@@H](Cc1cccnc1)C(=O)N(C)CC(=O)N(C)C` [compound 346, cPEG3aCO-Pen(3)-N(N(Me)2)-T-7MeW-Cit-Pen(3)-TMAPF-2Nal-THP-K(NMeAc)-N-3Pya-Sar-CON(Me)2] ({Me3N+(CH2)2O(CH2)2O(CH2)2CO}-[Pen]D(NMe2)T[Trp(7-Me)][Cit][Pen]Y(X3)[2Nal][Thp][Lys(Me)](Ac)N[3Pal][Sar]-NMe2; disulfide 1-6), at IL-23R, the IC50 worked out at 1.8 nM. The EPSA in series [1] is 158 A^2.
As for `CC(=O)NCCCC[C@@H]1NC(=O)[C@H](Cc2c[nH]c3c(C)cccc23)NC(=O)[C@H]([C@@H](C)O)NC(=O)[C@H](CC(N)=O)NC(=O)[C@@H](NC(=O)[C@@H](CCCNC(=N)N)NC(C)=O)C(C)(C)SSC(C)(C)[C@@H](C(=O)N[C@@H](Cc2ccc(OCCCCC[N+](C)(C)C)cc2)C(=O)N[C@@H](Cc2ccc3ccccc3c2)C(=O)NC2(C(=O)N[C@@H](CCCCNC(C)=O)C(=O)N[C@@H](CC(N)=O)C(=O)N[C@@H](Cc3cccnc3)C(=O)N(C)CC(N)=O)CCOCC2)NC1=O` [compound 558, MeCO-r-Pen(3)-N-T-7MeW-K(Ac)-Pen(3)-TMAPF-2Nal-THP-K(Ac)-N-3Pya-Sar-CONH2] (Ac-[dR][Pen]NT[Trp(7-Me)]K(Ac)[Pen]Y(X3)[2Nal][Thp]K(Ac)N[3Pal][Sar]-NH2; disulfide 2-7), the IC50 on IL-23R worked out at 4.1 nM. In series [1], the EPSA came to 174 A^2.
The matching figures for `CC(=O)N(C)CCCC[C@H](NC(=O)[C@H](CC(C)C)NC(=O)[C@H](Cc1ccc2ccccc2c1)NC(=O)[C@H](Cc1ccc(OCCOCCOCC[N+](C)(C)C)cc1)NC(=O)[C@H]1NC(=O)[C@H](CC(C)C)NC(=O)[C@H](Cc2c[nH]c3c(C)cccc23)NC(=O)[C@H]([C@@H](C)O)NC(=O)[C@H](CC(C)C)NC(=O)[C@@H](NC(=O)CCOCCOCC[N+](C)(C)C)C(C)(C)SSC1(C)C)C(=O)N[C@@H](CC(N)=O)C(=O)N[C@@H](Cc1cccnc1)C(=O)N(C)CC(=O)N(C)C` [compound 463, cPEG3aCO-Pen(3)-L-T-7MeW-L-Pen(3)-APEG3f-2Nal-L-K(NMeAc)-N-3Pya-Sar-CON(Me)2] ({Me3N+(CH2)2O(CH2)2O(CH2)2CO}-[Pen]LT[Trp(7-Me)]L[Pen]Y(CH2CH2OCH2CH2OCH2CH2NMe3+)[2Nal]L[Lys(Me)](Ac)N[3Pal][Sar]-NMe2; disulfide 1-6): 9 nM and 151 A^2.

Values taken from patent US20260022143A1, “Cyclic Peptide Inhibitors of IL-23” (JANSSEN PHARMACEUTICA NV, priority 2022, published 2026).
